Laboratory results from article PMC9502539, “1,2,3-Triazole-Benzofused Molecular Conjugates as Potential Antiviral Agents against SARS-CoV-2 Virus Variants” (Life, 2022).
Converted amounts (≈) assume the structure as drawn.

Key:
SARS-CoV-2 spike protein = biological target: T1, SARS-CoV-2 spike protein (Severe acute respiratory syndrome coronavirus 2, UniProt P0DTC2); assay: biochemical; type: binding; conditions: read-out: remaining activity % of SARS-CoV-2 spike proteins; for remaining activity at 0.1 µM: tested concentration 100 nM; for remaining activity at 0.2 µM: tested concentration 200 nM; for remaining activity at 0.5 µM: tested concentration 500 nM; for remaining activity at 0.75 µM: tested concentration 750 nM; for remaining activity at 1 µM: tested concentration 1000 nM
T1 construct: purchased Biosource, Muskego, WI, USA

SARS-CoV-2 [1] = assay: microbe, parasite or virus in culture; type: cell-based; conditions: for EC50: Severe acute respiratory syndrome coronavirus 2, Vero C1008
in vitro = conditions: African green monkey
SARS-CoV-2 [2] = conditions: cited from earlier work
IL-1β = assay: Proinflammatory cytokine production (ELISA) in infected cells; type: cell-based; conditions: infected cells treated with compound vs infected untreated
IL-6 = assay: as above; type: cell-based; conditions: infected cells treated with compound vs infected untreated

Nn1c(Cn2cc(CSc3nc4ccccc4n3Cc3cn(Cc4n[nH]c(=S)n4N)nn3)nn2)n[nH]c1=S [compound 7]
remaining activity at 0.1 µM (SARS-CoV-2 spike protein): 86.1%
remaining activity at 0.2 µM (SARS-CoV-2 spike protein): 77.2%
remaining activity at 0.5 µM (SARS-CoV-2 spike protein): 58.6%
remaining activity at 0.75 µM (SARS-CoV-2 spike protein): 44%
remaining activity at 1 µM (SARS-CoV-2 spike protein): 40%
Selectivity Index (SI) (SARS-CoV-2 [1]): 5.0
EC50 (SARS-CoV-2 [1]): 306 µg/mL (≈ 538 µM)
CC50 (in vitro): 1530 µg/mL (≈ 2690 µM)

Fc1ccc2nc(C(F)(F)F)cc(OCc3cn(-c4ccccc4Cl)nn3)c2c1 [10 g, 4-((1-(2-chlorophenyl)-1H-1,2,3-triazol-4-yl)methoxy)-6-fluoro-2-(trifluoromethyl)quinoline]
antiviral activity against SARS-CoV-2 (SARS-CoV-2 [2]): high antiviral activity

S=c1[nH]nc(Cn2cc(CSc3nc4ccccc4n3Cc3cn(Cc4n[nH]c(=S)n4-c4ccccc4)nn3)nn2)n1-c1ccccc1 [compound 6]
remaining activity at 0.1 µM (SARS-CoV-2 spike protein): 79.9%
remaining activity at 0.2 µM (SARS-CoV-2 spike protein): 65.4%
remaining activity at 0.5 µM (SARS-CoV-2 spike protein): 38.2%
remaining activity at 0.75 µM (SARS-CoV-2 spike protein): 27%
remaining activity at 1 µM (SARS-CoV-2 spike protein): 20%
Selectivity Index (SI) (SARS-CoV-2 [1]): 6.87
EC50 (SARS-CoV-2 [1]): 155 µg/mL (≈ 224 µM)
CC50 (in vitro): 1070 µg/mL (≈ 1540 µM)

COc1ccc(-n2cc(CCOc3cc(C(F)(F)F)nc4ccc(F)cc34)nn2)cc1 [12c, 6-fluoro-4-(2-(1-(4-methoxyphenyl)-1H-1,2,3-triazol-4-yl)ethoxy)-2-(trifluoromethyl)quinoline]
antiviral activity against SARS-CoV-2 (SARS-CoV-2 [2]): high antiviral activity

O=C(Cn1cc(CSc2nc3ccccc3n2Cc2cn(CC(=O)NNC(=S)Nc3ccc(F)cc3)nn2)nn1)NNC(=S)Nc1ccc(F)cc1 [compound 5]
remaining activity at 0.1 µM (SARS-CoV-2 spike protein): 83.8%
remaining activity at 0.2 µM (SARS-CoV-2 spike protein): 70.2%
remaining activity at 0.5 µM (SARS-CoV-2 spike protein): 45.8%
remaining activity at 0.75 µM (SARS-CoV-2 spike protein): 32%
remaining activity at 1 µM (SARS-CoV-2 spike protein): 26%
Selectivity Index (SI) (SARS-CoV-2 [1]): 8.82
EC50 (SARS-CoV-2 [1]): 231 µg/mL (≈ 303 µM)
CC50 (in vitro): 2040 µg/mL (≈ 2670 µM)

CC(C)(O/N=C(\C(=O)N[C@@H]1C(=O)N2C(C(=O)[O-])=C(C[n+]3ccccc3)CS[C@H]12)c1csc(N)n1)C(=O)O [Ceftazidime, ceftazidime, reference compound]
remaining activity at 0.1 µM (SARS-CoV-2 spike protein): 99%
remaining activity at 0.2 µM (SARS-CoV-2 spike protein): 79%
remaining activity at 0.5 µM (SARS-CoV-2 spike protein): 59%
remaining activity at 0.75 µM (SARS-CoV-2 spike protein): 55.1%
remaining activity at 1 µM (SARS-CoV-2 spike protein): 45.2%
Selectivity Index (SI) (SARS-CoV-2 [1]): 12.29
EC50 (SARS-CoV-2 [1]): 85.1 µg/mL (≈ 156 µM)
CC50 (in vitro): 1050 µg/mL (≈ 1910 µM)

Cc1onc(NS(=O)(=O)c2ccc(-n3cc(CSc4nc5ccccc5n4Cc4cn(-c5ccc(S(=O)(=O)Nc6noc(C)c6C)cc5)nn4)nn3)cc2)c1C [compound 9]
IL-1β protein expression level (IL-1β): noticeably reduced
remaining activity at 0.1 µM (SARS-CoV-2 spike protein): 67.1%
remaining activity at 0.2 µM (SARS-CoV-2 spike protein): 32.7%
remaining activity at 0.5 µM (SARS-CoV-2 spike protein): 11.4%
remaining activity at 0.75 µM (SARS-CoV-2 spike protein): 12%
remaining activity at 1 µM (SARS-CoV-2 spike protein): 5%
EC50 (SARS-CoV-2 [1]): 80.4 µg/mL (≈ 98.9 µM)
CC50 (in vitro): 1030 µg/mL (≈ 1260 µM)
IL-6 protein expression level (IL-6): noticeably reduced

Cc1ccc2nc(NC(=O)Cn3cc(CN4C(=O)C(=O)c5ccccc54)nn3)sc2c1 [compound 12]
remaining activity at 0.1 µM (SARS-CoV-2 spike protein): 95.9%
remaining activity at 0.2 µM (SARS-CoV-2 spike protein): 92.5%
remaining activity at 0.5 µM (SARS-CoV-2 spike protein): 82%
remaining activity at 0.75 µM (SARS-CoV-2 spike protein): 82%
remaining activity at 1 µM (SARS-CoV-2 spike protein): 70%
Selectivity Index (SI) (SARS-CoV-2 [1]): 0.87
EC50 (SARS-CoV-2 [1]): 382 µg/mL (≈ 882 µM)
CC50 (in vitro): 332 µg/mL (≈ 767 µM)

O=C(Cn1cc(CSc2nc3ccccc3n2Cc2cn(CC(=O)NNC(=S)Nc3ccccc3)nn2)nn1)NNC(=S)Nc1ccccc1 [compound 4]
remaining activity at 0.1 µM (SARS-CoV-2 spike protein): 74.6%
remaining activity at 0.2 µM (SARS-CoV-2 spike protein): 46%
remaining activity at 0.5 µM (SARS-CoV-2 spike protein): 21.9%
remaining activity at 0.75 µM (SARS-CoV-2 spike protein): 20%
remaining activity at 1 µM (SARS-CoV-2 spike protein): 18%
Selectivity Index (SI) (SARS-CoV-2 [1]): 10.90
EC50 (SARS-CoV-2 [1]): 174 µg/mL (≈ 240 µM)
CC50 (in vitro): 1900 µg/mL (≈ 2610 µM)
